In publication PMC9501899 (Journal of the American Chemical Society, 2022):

Tests used:
[1] = biological target: T1, WT LRRK2 (Mus musculus, UniProt Q5S006); assay: LRRK2 degradation in WT MEFs by Western blotting; assay type: cell-based; conditions: 4 h
T1 construct: endogenous in cells; host or cells: wild-type primary MEFs
Description: (§1) These PROTACs were then biologically evaluated in mouse embryonic fibroblasts (MEFs) by Western blotting. Briefly, MEFs were treated with compounds at 33 nM and 1 μM for 4 h (Figure 2) and 24 h (Figure S2) separately, and the intracellular level of LRRK2, phosphorylated LRRK2 at Ser935, and phosphorylated Rab10 (pRab10) at Thr73 was determined. Rab10[5],[49] is one of the bona fide substrates of LRRK2, whose phosphorylation status is directly affected by the LRRK2 kinase activity and protein level. Phosphorylation of LRRK2 at Ser935 is a well-studied biomarker site used to assess the efficacy of type 1 LRRK2 inhibitors.[30]
(§2) Primary MEFs were generated as described in a previous study.[80] Briefly, the uterine horn was collected from adult female mice at day E12.5 and transferred to a 10 cm tissue culture dish containing cold PBS. Two forceps were used to tear the yolk sacs to isolate each embryo. Forceps were cleaned thoroughly with 70% ethanol between each embryo isolation. The embryos were culled, and a tissue piece was collected in a polymerase chain reaction (PCR) tube for genotyping. The red tissue of the embryo was removed, and the remainder was minced with a scalpel blade and incubated with a 7.5 mL trypsin–ethylenediaminetetraacetic acid (EDTA) solution for 10 min in a 37 °C, 5% CO2 tissue culture incubator. The dish was removed from the incubator and checked under a light microscope for single cells. Complete media (7.5 mL) was added to the trypsinized cells, and the cell suspension was transferred to a 15 mL Falcon tube and centrifuged at 1200 rpm for 5 min at room temperature. The trypsin was aspirated, the cell pellet was resuspended in a 5 mL fresh complete media, and the cell suspension was plated in a 60 mm tissue culture dish and incubated in a 37 °C, 5% CO2 tissue culture incubator. The MEFs at this stage were considered as passage 0 and were passaged and expanded for experimental use once the genotype was confirmed by allelic sequencing and immunoblotting. MEFs were cultured in Dulbecco’s modified Eagle’s medium (DMEM) containing 10% (v/v) fetal bovine serum (FBS), 2 mM L-glutamine, 100 U/mL penicillin, and 100 μg/mL streptomycin supplemented with 1× nonessential amino acids and 1 mM sodium pyruvate.
(§3) Culturing and passaging of adherent cell lines were carried out using an aseptic technique in CL1 or CL2 (for PBMC isolation) biological safety cabinets. All cells were incubated in a 37 °C incubator with 5% CO2. Cell lines were regularly tested for mycoplasma contamination. For Western blot assay, the cells were seeded in six-well plates. For immunoprecipitation of LRRK2, SH-SY5Y cells (cultured in DMEM-F12, supplemented with 15% (v/v) FBS, 100 U/mL penicillin and 100 μg/mL streptomycin, 1× nonessential amino acids, and 1 mM sodium pyruvate) were seeded in a 10 cm dish. All cells were treated with the indicated compounds such that the final concentration of DMSO was 0.1%. Following the treatment of cells with compounds at indicated concentrations and time periods, the media was removed and the cells were washed with PBS and lysed in a 100 μL ice-cold complete lysis buffer containing 50 mM tris–HCl pH 7.4, 1 mM EGTA, 10 mM 2-glycerophosphate, 50 mM sodium fluoride, 5 mM sodium pyrophosphate, 270 mM sucrose, supplemented with 1 μg/mL microcystin-LR, 1 mM sodium orthovanadate, complete EDTA-free protease inhibitor cocktail (Roche), and 1% (v/v) Triton X-100. The cells were immediately placed on ice and were scraped and collected into 1.5 mL Eppendorf tubes. Cell lysates were incubated on ice for 10 min prior to centrifugation at 15 000g at 4 °C for 15 min.

[2] = biological target: T2, G2019S LRRK2 (Mus musculus, UniProt Q5S006, G2019S); assay: LRRK2 degradation in G2019S LRRK2 MEFs by Western blotting; assay type: cell-based
T2 construct: endogenous in cells; host or cells: G2019S LRRK2 MEFs
Description: as §1, §2, §3

[3] = tested on: Rab10-pThr73; assay: Rab10 dephosphorylation in WT MEFs by Western blotting; assay type: cell-based, mouse; conditions: Mus musculus; 4 h, WT MEFs; read-out: EC50 WT-pRab10
Description: as §1, §2, §3

[4] = tested on: Rab10-pThr73; assay: Rab10 dephosphorylation in G2019S LRRK2 MEFs by Western blotting; assay type: cell-based, mouse
Description: as §1, §2, §3

[5] = tested on: LRRK2; assay: Western blot screening of PROTACs in WT and G2019S LRRK2 MEFs; assay type: cell-based, mouse
Description: as §1, §2
Culturing and passaging of adherent cell lines were carried out using an aseptic technique in CL1 or CL2 (for PBMC isolation) biological safety cabinets. All cells were incubated in a 37 °C incubator with 5% CO2. Cell lines were regularly tested for mycoplasma contamination. For Western blot assay, the cells were seeded in six-well plates.

T2 sequence (Q5S006 whole entry G2019S): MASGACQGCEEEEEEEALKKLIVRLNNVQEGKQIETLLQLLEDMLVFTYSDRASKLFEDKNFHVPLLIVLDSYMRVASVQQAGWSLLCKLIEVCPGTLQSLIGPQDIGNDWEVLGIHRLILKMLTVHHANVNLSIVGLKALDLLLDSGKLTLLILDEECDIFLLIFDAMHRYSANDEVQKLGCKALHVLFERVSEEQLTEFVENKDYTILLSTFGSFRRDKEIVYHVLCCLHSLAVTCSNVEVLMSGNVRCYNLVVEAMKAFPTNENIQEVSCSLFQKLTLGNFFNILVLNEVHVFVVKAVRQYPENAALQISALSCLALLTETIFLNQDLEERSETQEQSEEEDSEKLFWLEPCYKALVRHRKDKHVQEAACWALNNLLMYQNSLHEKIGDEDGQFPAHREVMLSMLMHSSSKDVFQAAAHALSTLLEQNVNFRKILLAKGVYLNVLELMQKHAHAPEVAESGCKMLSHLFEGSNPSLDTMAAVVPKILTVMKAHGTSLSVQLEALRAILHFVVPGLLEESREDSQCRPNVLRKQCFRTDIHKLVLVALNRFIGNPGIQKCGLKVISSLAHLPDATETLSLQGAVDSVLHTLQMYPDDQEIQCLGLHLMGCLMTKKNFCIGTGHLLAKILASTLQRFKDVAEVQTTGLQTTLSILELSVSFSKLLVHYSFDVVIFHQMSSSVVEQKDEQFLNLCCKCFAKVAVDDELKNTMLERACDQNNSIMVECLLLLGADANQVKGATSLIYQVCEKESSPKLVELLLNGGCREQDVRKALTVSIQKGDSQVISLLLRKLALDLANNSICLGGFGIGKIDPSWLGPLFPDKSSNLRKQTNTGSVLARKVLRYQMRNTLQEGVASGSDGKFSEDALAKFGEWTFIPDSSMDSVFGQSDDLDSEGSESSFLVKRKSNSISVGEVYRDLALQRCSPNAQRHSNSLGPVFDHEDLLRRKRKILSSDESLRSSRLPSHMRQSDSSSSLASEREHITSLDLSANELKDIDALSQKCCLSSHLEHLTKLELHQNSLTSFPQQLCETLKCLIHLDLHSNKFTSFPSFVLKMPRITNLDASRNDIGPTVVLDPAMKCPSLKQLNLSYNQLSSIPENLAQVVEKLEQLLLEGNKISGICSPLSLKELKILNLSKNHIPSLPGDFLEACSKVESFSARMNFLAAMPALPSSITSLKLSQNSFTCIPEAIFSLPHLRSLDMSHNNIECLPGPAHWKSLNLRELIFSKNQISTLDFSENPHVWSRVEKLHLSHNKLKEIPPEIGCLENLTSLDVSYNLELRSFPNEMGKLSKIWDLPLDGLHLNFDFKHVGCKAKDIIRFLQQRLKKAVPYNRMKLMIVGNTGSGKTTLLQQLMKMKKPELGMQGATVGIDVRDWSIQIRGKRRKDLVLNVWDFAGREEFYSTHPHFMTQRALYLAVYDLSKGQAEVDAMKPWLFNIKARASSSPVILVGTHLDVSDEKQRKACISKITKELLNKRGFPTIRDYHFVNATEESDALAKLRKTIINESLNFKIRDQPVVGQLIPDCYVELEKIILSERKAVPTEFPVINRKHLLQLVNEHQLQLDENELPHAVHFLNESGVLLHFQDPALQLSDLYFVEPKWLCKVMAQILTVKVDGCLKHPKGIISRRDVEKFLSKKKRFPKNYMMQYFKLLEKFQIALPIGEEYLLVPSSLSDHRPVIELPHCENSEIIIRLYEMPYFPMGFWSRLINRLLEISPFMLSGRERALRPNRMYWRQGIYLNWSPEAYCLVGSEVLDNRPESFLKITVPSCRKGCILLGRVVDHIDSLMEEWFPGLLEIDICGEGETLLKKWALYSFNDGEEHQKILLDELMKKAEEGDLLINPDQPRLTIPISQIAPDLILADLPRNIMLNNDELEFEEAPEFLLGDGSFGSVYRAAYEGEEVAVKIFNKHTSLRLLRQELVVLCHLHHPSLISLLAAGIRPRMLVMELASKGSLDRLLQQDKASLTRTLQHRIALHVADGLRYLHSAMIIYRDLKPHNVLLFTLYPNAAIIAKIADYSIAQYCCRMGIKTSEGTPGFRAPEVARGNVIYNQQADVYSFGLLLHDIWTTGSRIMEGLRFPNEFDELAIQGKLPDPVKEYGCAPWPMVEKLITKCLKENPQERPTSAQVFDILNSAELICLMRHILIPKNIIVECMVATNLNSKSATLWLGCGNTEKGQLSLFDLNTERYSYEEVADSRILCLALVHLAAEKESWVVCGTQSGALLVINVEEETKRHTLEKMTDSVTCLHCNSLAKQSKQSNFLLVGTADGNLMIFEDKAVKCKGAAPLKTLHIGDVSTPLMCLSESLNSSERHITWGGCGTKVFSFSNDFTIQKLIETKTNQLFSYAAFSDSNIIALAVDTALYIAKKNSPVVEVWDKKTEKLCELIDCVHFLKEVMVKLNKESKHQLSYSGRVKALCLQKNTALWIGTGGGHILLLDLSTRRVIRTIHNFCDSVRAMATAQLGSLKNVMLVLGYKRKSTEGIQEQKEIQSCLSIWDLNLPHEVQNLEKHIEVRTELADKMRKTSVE
T1 sequence (Q5S006 whole entry): as the sequence (Q5S006 whole entry G2019S) above, with S2019G counted along it

CNc1nc(Nc2ccc(C(=O)N3CCOCC3)cc2OC)ncc1Cl [HG-10-102-01, reference compound]
degradation of WT LRRK2 (in words) [1]: did not degrade LRRK2 | degradation of G2019S LRRK2 (in words) ([2]; 4 h): did not degrade LRRK2 | EC50 [3]: 214 nM | EC50 ([4]; Mus musculus, 4 h, G2019S LRRK2 MEFs, read-out: EC50 G2019S pRab10): 110 nM

CNc1nc(Nc2ccc(C(=O)N3CCN(CCCOc4cc(-c5scnc5C)ccc4CNC(=O)[C@@H]4C[C@@H](O)CN4C(=O)[C@@H](NC(=O)C4(F)CC4)C(C)(C)C)CC3)cc2OC)ncc1Cl [SD13]
G2019S LRRK2 degraded ([2]; 33 nM/4 h): 60% | G2019S LRRK2 degraded ([2]; 33 nM/24 h): 68%

CNc1nc(Nc2ccc(C(=O)N3CCN(Cc4ccc(CSC(C)(C)C(NC(=O)C5(F)CC5)C(=O)N5CC(O)CC5C(=O)NCc5ccc(-c6scnc6C)cc5)cc4)CC3)cc2OC)ncc1Cl (stereo not drawn) [SD100]
pRab10 dephosphorylated ([4]; 1 µM): 75–90% | degradation of LRRK2 ([5]; 0.033 µM): < 40% | degradation of LRRK2 (in words) ([5]; 33 nM/4 h, WT and G2019S LRRK2 MEFs): little to no degradation
